# Results: patent US20030176314A1, “Compounds for the treatment of pain” (priority 2001, published 2003)
# Target: T1, human α1B adrenergic receptor (Homo sapiens, UniProt P35368)
# T1 construct: host or cells: LM(tk-) cells, line L-α1B
# T1 sequence (P35368 1-520): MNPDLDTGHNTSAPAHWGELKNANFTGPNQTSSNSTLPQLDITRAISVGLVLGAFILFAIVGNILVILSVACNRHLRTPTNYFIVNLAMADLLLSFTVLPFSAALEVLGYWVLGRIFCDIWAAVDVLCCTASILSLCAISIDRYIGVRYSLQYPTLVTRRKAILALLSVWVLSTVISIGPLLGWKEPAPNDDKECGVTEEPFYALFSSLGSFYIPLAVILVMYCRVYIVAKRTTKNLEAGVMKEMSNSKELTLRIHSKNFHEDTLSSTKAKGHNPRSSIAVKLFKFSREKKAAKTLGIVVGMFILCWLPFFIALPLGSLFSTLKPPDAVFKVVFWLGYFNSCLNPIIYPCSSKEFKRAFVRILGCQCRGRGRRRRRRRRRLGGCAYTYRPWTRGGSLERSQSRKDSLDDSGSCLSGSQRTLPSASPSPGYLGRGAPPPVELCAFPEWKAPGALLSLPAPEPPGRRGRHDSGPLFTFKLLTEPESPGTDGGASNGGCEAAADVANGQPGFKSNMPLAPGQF
# Test: Binding at human α1B adrenergic receptor
# Details: Table 8; read-out: hα1B Ki
# Text: α1 Human Adrenergic Receptors: To determine the binding of compounds to human α1 receptors, LM(tk−) cell lines stably transfected with the genes encoding the α1a, α1b, and α1d receptors were used. The nomenclature describing the α1 receptors was changed recently, such that the receptor formerly designated α1a is now designated α1d, and the receptor formerly designated α1c is now designated α1a. The cell lines expressing these receptors were deposited with the ATCC before the nomenclature change and reflect the subtype designations formerly assigned to these receptors. Thus, the cell line expressing the receptor described herein as the α1a receptor was deposited with the ATCC on Sep. […] The cell line expressing receptor described herein as the α1d receptor was deposited with the ATCC on Sep. […] The cell line expressing the α1b receptor is designated L-α1B, and was deposited on Sep.
# The binding affinity (Ki) of these compounds were tested according to the protocols described herein at the following receptors; human α1A, α1B, α1D, α2A, α2B, and α2C adrenergic receptors; human Y1, Y2, Y4, and Y5 receptors; and N-Methyl-D-aspartic acid (NMDA) receptor channels. The binding interactions of these compounds were additionally tested at the norepinephrine (NE) transporter (NE uptake) and serotonin (5-hydroxytryptamine (5HT)) transporter (5HT uptake) according to protocols described herein
smiles,measurement,value
Cc1nc(NC(=N)N)nc2ccc3ccccc3c12 [Compound 1007A],Ki,3.04 µM
